Test results as given in patent US5064850A, “Dihydro-3,3-diphenyl-5-(1H-pyrazol-1-ylmethyl-2(3H)-furanone and dihydro-5-((substituted-1H-pyrazol-1-yl)methyl)-3,3-diphenyl-2(3H)-furan one derivatives” (Marion Merrell Dow Inc., priority 1991, dated 1991).
Where a name gives a salt, the structure may show the parent alone.

target: T1, postsynaptic muscarinic cholinergic receptors on intestinal (ileal-longitudinal) smooth muscle (Cavia porcellus, UniProt H0W1Z3); assay: Antimuscarinic Test Protocol: antagonism of carbachol-induced contraction of ileum strips (Table 1); format: cell-based, guinea pig; settings: carbachol as agonist, read-out: Anti-muscarinic Activity Kb
T1 construct: The longitudinal muscle, with the myenteric plexus attached, is separated from the underlying circular muscle; from tissue; host or cells: guinea pig ileum, longitudinal muscle strip with myenteric plexus attached
T1 sequence (H0W1Z3 1-590): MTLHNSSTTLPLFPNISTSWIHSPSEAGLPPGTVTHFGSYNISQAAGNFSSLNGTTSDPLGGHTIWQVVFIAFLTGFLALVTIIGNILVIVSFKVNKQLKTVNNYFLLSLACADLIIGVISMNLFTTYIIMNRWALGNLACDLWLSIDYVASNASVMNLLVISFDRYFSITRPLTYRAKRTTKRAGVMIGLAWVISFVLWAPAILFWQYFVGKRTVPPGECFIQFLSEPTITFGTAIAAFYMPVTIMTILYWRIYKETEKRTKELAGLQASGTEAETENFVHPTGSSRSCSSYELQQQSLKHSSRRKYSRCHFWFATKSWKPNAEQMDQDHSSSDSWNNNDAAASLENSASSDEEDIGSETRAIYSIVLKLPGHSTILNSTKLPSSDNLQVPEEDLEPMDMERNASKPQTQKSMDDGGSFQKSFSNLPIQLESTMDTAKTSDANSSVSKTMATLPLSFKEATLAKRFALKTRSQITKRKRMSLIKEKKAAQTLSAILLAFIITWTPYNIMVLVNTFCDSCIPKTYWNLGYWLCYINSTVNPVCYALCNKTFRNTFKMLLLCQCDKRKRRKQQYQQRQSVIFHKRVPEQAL
Description: Antimuscarinic Test Protocol.
Male albino guinea pigs are killed by decapitation or cervical dislocation. The cavity is opened and the small intestine is removed, with about 10 cm of the terminal ileum being discarded. The intestine is placed in a Petri dish that contains Tyrodes solution (137 mM NaCl, 2.78 mM KCl, 1.8 mM CaCl2.2H2 O, 1.1 mM MgCl2.6H2 O, 0.4 mM […], 11.8 mM NaHCO3, 5.6 mM dextrose) and cut into 3-4 cm segments. The segments are preferentially taken from the aboral end of the ileum. Each segment is carefully stretched onto a glass rod 6 mm in diameter and the remaining mesenteric tissue is cut away. The longitudinal muscle, with the myenteric plexus attached, is separated from the underlying circular muscle by gently stroking with a cotton-tipped applicator soaked in Tyrodes solution on a tangent away from the shallow longitudinal incisions made parallel to the mesenteric attachment. Using gentle traction, and taking care to keep the segment moist throughout the whole procedure, the tissue is stripped from the whole length of the segment (Paton and Zar, J. Physiol. 194:13, 1968).
Tissues are suspended with 5-0 silk suture in 10 mL water-jacketed glass tissue baths containing Tyrodes solution maintained at 37° C. and aerated with 95% O2 /5% CO2. The suture connects each tissue to an isometric force-displacement transducer (Grass or Gould) coupled to a physiograph. Each preparation is suspended under a resting tension of 0.3 g and allowed to equilibrate for 36 minutes. During this period, the baths are emptied and filled every 12 minutes with 10 mL of warm Tyrodes solution. At the end of this equilibration period, each muscle strip is conditioned by adding 10 mM carbachol to the baths. The drug remains in contact with each tissue for 1-2 minutes and then is removed from the bath with 4 rapid rinses of 10 mL of warm Tyrodes solution. The preparations are allowed to recover for an additional 12 minutes before being used in experiments.
Carbachol is dissolved in saline to produce 2×10^-2 M stock concentrations. Serial dilutions (1:10) in saline or water are made from the stock solution. Appropriate volumes of these solutions are added cumulatively to the 10 mL tissue baths in order to obtain the desired bath concentrations.
Compounds that are soluble in water or saline are dissolved in these solvents to produce 2×10^-2 or 2×10^-3 M stock concentrations. Small amounts of 1 N HCl, NaOH, or 95 ethanol may be added for those agents that are not soluble in water or saline alone. […] in dimethylsulfoxide (DMSO) to produce 4×10^-2 M stock solutions. Serial dilutions (1:10) in water are made from the stock solution. Other solvents may be used when appropriate and will be specifically described in the experimental procedure. Appropriate volumes are then added to the baths in order to obtain the desired bath concentrations.
Appropriate volumes of carbachol solutions are cumulatively added to the 10 mL tissue baths to increase the concentration of carbachol in the bath step-by-step without washing out after each single dose. With each concentration step, the tissue contracts isometrically. The next concentration is added only after the preceding contraction has reached a steady value. […] The tissue is then washed with 4 rapid rinses of 10 mL of warm Tyrodes solution and allowed to recover for 12 minutes [Van Rossum et al., Arch. Int. Pharmacodyn. 143:240, (1963) and 143:299, (1963)]. Antagonism of carbachol responses in the presence of antagonist is determined by repeating the cumulative addition procedure after the tissue has been exposed to the […] for 5 minutes.
Three or four different concentrations of antagonist are studied in the same preparations. Responses are expressed relative to the maximum contraction elicited by carbachol in the absence of antagonist.

Compound	Kb
Cc1cc(C)n(CC2CC(c3ccccc3)(c3ccccc3)C(=O)O2)n1 (centres unmarked) [Dihydro-5-[(3,5-dimethyl-1H-pyrazol-1-yl)methyl]-3.3-diphenyl-2(3H)-furanone hydrochloride]	1000 nM
C[n+]1cccn1CC1CC(c2ccccc2)(c2ccccc2)C(=O)O1 (centres unmarked) [Methyl dihydro-3,3-diphenyl-5-(1H-pyrazol-1-ylmethyl)-2(3H)-furanone chloride hydrate]	100 nM
Cc1cnn(CC2CC(c3ccccc3)(c3ccccc3)C(=O)O2)c1 (centres unmarked) [Dihydro-5-[(4-methyl-1H-pyrazol-1-yl)methyl]-3,3-diphenyl-2(3H)-furanone]	251 nM
O=C1OC(Cn2cccn2)CC1(c1ccccc1)c1ccccc1 (centres unmarked) [Dihydro-3,3-diphenyl-5-(1H-pyrazol-1-ylmethyl)-2(3H)-furanone]	50 nM

Other lines, results leading:

Kb	Compound
49 nM	CC[n+]1cccn1CC1CC(c2ccccc2)(c2ccccc2)C(=O)O1 (centres unmarked) [Ethyl dihydro-3,3-diphenyl-5-(1H-pyrazol-1-ylmethyl)-2(3H)-furanone chloride]
148 nM	CC[n+]1cc(C)cn1CC1CC(c2ccccc2)(c2ccccc2)C(=O)O1 (centres unmarked) [Ethyl dihydro-5-[(4-methyl-1H-pyrazol-1-yl)methyl]-3,3-diphenyl-2(3H)-furanone chloride hydrate]
142 nM	Cc1ccn(CC2CC(c3ccccc3)(c3ccccc3)C(=O)O2)[n+]1C (centres unmarked) [Methyl dihydro-5-[(3-methyl-1H-pyrazol-1-yl)methyl]-3,3-diphenyl-2(3H)-furanone chloride hydrate]
117 nM	Cc1cn(CC2CC(c3ccccc3)(c3ccccc3)C(=O)O2)[n+](C)c1 (centres unmarked) [Methyl dihydro-5-[(4-methyl-1H-pyrazol-1-yl)methyl]-3,3-diphenyl-2(3H)-furanone chloride hydrate]
239 nM	Cc1ccn(CC2CC(c3ccccc3)(c3ccccc3)C(=O)O2)n1 (centres unmarked) [Dihydro-5-[(3-methyl-1H-pyrazol-1-yl)methyl]-3,3-diphenyl-2(3H)-furanone]
52 nM	CC[n+]1c(C)ccn1CC1CC(c2ccccc2)(c2ccccc2)C(=O)O1 (centres unmarked) [Ethyl dihydro-5-[(3-methyl-1H-pyrazol-1-yl)methyl]-3,3-diphenyl-2(3H)-furanone chloride hydrate]

test system: isolated guinea pig ileum; assay: not given; settings: cited from earlier work

Compound	prevention of contractions of isolated guinea pig ileum
CN(C)CC1CC(c2ccccc2)(c2ccccc2)OC1=O (centres unmarked) [3-[(dimethylamino)methyl]-4,5-dihydro-5,5-diphenyl-2(3H)furanone]	prevents contractions of isolated guinea pig ileum
